This note sets out measurements from publication PMC9866218, “Characterization and Chemical Synthesis of Cm39 (α-KTx 4.8): A Scorpion Toxin That Inhibits Voltage-Gated K^+ Channel KV1.2 and Small- and Intermediate-Conductance Ca^2+-Activated K^+ Channels KCa2.2 and KCa3.1” (Toxins, 2023).

Structures are written as SMILES. Entries after “also recorded” stand apart in the source; their conditions may differ.

One data set deals with T1, hKCa2.2 (Homo sapiens, UniProt Q9H2S1).
T1 construct: expressed in transfected cells; host or cells: CHO cells, transient transfection, co-transfected with a GFP plasmid
In words: Whole-cell patch-clamp, block of KCa2.2 current. It is filed as cell-based. An excerpt:
(§1) We, therefore, aimed at testing the pharmacological activity of sCm39 on a battery of various potassium and sodium ion channels. Among the tested channels were six members of human voltage-gated K^+ (hKV) channels from Shaker family, hKV1.1-hKV1.6 (Figure 3A–F) and three members of Ca^2+-activated potassium channel; hKCa2.2 (SK2, Figure 3I), the small-conductance Ca^2+-activated channel; hKCa3.1 (IKCa1, SK4. Figure 3J), the intermediate-conductance Ca^2+-activated channel expressed in T lymphocytes; and mKCa1.1 (BK, Slo1, MaxiK, Figure 3H), the large-conductance voltage- and Ca^2+-activated channel of mice. In addition, we also screened the effect of Cm39 on hKV11.1 (hERG1, Figure 3G), a voltage-gated cardiac K^+ channel, and two human voltage-gated sodium (hNaV) channels, hNaV1.4 (Figure 3K) and hNaV1.5 (Figure 3L), expressed in skeletal and cardiac muscles, respectively. These ion channels were heterologously expressed in the CHO or HEK cell lines except for KV1.3. Human peripheral T lymphocytes. They were stimulated with Phytohemagglutinin A (PHA) to increase the KV1.3 channel expression, and Ca^2+-free intracellular solution was used to avoid KCa3.1 channel activation. Appropriate depolarization protocols were used to record ionic currents in voltage-clamped cells (see Figure 3 insets and Material and Methods for details). Freshly dissolved sCm39 in extracellular solution was applied at 1 µM concentration on the cell using a custom-built micro-perfusion system at ~200 µL/min flow rate.
The whole-cell K^+ currents of CHO cells transiently expressing KCa2.2 or KCa3.1 channels were recorded sequentially by applying the 150 ms long voltage ramp to +50 mV from Vh of −120 mV every 10 s in the presence of control solution or upon perfusing the cell with different concentrations of sCm39. Normalized peak currents were calculated and plotted as function of time as shown in Figure 5A for KCa2.2 and in Figure 5C for KCa3.1 in the presence of the toxin at various concentrations and upon wash-out. […] RCF values were determined at equilibrium block in the presence of various concentrations of sCm39 and fitted with the Hill equation (see Materials and Methods for details).
(§2) Chinese hamster ovary (CHO) cells (gift from Yosef Yarden, Weizmann Institute of Science, Rehovot, Israel) were maintained by culturing in Dulbecco’s modified Eagle medium (DMEM, Gibco) supplemented with 2 mM L-glutamine, 10% FBS, 100 µg/mL streptomycin and 100 U/mL penicillin-g (Sigma-Aldrich) at a density of 0. 5−1×10^6 cells per mL in a humidified incubator at 37 °C and 5% CO2. Cells were passaged 3 times in a week following a 2–5 min incubation in 0.05% trypsin-EDTA solution at 37 °C. Cultures were used up to passage number 20. PCR-based tests were routinely used to detect mycoplasma infection, only mycoplasma-free cultures were used for experiments.
(§3) Those plasmids which lack a fluorescent tag were co-transfected with a plasmid encoding GFP. Transfections were performed at a GFP:channel DNA molar ratio of 1:10 using the Lipofectamine 2000 kit (Invitrogen) according to the manufacturer’s protocol. […] Generally, currents were recorded 24 to 48 h post transfection.
For the measurement of KV1.x, mKCa1.1 and NaV1.x currents the extracellular solution was composed of (in mM) 145 NaCl, 5 KCl, 2.5 CaCl2, 1 MgCl2, 10 HEPES and 5.5 glucose, pH 7.35.

A further data set relates to hKV1.5. The data set can be described thus: Whole-cell patch-clamp, block of KV1.5 current. The conditions noted are these: CHO cells. It is filed as cell-based, human.
Text: as §1, with “Appropriate depolarization protocols were used to record ionic currents in voltage-clamped cells (see Figure 3 insets and Material and Methods for details). Freshly dissolved sCm39 in extracellular solution was applied at 1 µM concentration on the cell using a custom-built micro-perfusion system at ~200 µL/min flow rate.” left out
(§4) Those plasmids which lack a fluorescent tag were co-transfected with a plasmid encoding GFP. […] Generally, currents were recorded 24 to 48 h post transfection. […]
In general terms: In patch-clamp work, channel activity is measured electrically.

The test system of another data set is hNaV1.5. In words: Whole-cell patch-clamp, block of NaV1.5 current. It is filed as cell-based, human. The conditions noted are these: CHO cells.
Text: as §1, with “Appropriate depolarization protocols were used to record ionic currents in voltage-clamped cells (see Figure 3 insets and Material and Methods for details). Freshly dissolved sCm39 in extracellular solution was applied at 1 µM concentration on the cell using a custom-built micro-perfusion system at ~200 µL/min flow rate.” left out
as §4

The test system of the next data set is hKV1.4. In words: Whole-cell patch-clamp, block of KV1.4 current. It is filed as cell-based, human. The conditions noted are these: CHO cells.
Text: as §1, with “Appropriate depolarization protocols were used to record ionic currents in voltage-clamped cells (see Figure 3 insets and Material and Methods for details). Freshly dissolved sCm39 in extracellular solution was applied at 1 µM concentration on the cell using a custom-built micro-perfusion system at ~200 µL/min flow rate.” left out
as §4

Another data set has as its system hKV1.6. It is filed as cell-based, human. The settings on record: CHO cells.
Text: as §1, §2, §3
For the measurement of KV1.x, mKCa1.1 and NaV1.x currents the extracellular solution was composed of (in mM) 145 NaCl, 5 KCl, 2.5 CaCl2, 1 MgCl2, 10 HEPES and 5.5 glucose, pH 7.35. In the HK-150 and Na^+-free bath solution bath all Na^+ was substituted by K^+ or Choline-Cl, respectively, other ingredients remained unchanged. In the various TEA^+-containing solutions, Na^+ was substituted by tetraethylammonium-Cl in equimolar concentration (Figure 3). The bath solution for KCa2.2 and KCa3.1 consisted of (in mM) 145 L-Aspartic Na^+ salt, 5 KCl, 2.5 CaCl2, 1 MgCl2, 5.5 glucose and 10 HEPES, pH 7.4 and for KV11.1 (in mM) 140 Choline-Cl, 5 KCl, 2 MgCl2, 2 CaCl2, 10 HEPES, 20 glucose and 0.1 CdCl2, pH 7.35. The osmolarity of bath solutions was ranging between 302 to 308 mOsm/L. A total of 0.1 mg/mL bovine serum albumin (BSA, Sigma-Aldrich, Budapest, Hungary) was added to all the bath solutions before the patch-clamp assay to avoid toxin adsorption to the plastic surfaces of the perfusion system. Internal or pipette solution for recording KV1.x and mKCa1.1 currents consisted of (in mM) 140 KF, 2 MgCl2, 1 CaCl2, 11 EGTA and 10 HEPES, pH 7.22.

T1 sequence (Q9H2S1 whole entry): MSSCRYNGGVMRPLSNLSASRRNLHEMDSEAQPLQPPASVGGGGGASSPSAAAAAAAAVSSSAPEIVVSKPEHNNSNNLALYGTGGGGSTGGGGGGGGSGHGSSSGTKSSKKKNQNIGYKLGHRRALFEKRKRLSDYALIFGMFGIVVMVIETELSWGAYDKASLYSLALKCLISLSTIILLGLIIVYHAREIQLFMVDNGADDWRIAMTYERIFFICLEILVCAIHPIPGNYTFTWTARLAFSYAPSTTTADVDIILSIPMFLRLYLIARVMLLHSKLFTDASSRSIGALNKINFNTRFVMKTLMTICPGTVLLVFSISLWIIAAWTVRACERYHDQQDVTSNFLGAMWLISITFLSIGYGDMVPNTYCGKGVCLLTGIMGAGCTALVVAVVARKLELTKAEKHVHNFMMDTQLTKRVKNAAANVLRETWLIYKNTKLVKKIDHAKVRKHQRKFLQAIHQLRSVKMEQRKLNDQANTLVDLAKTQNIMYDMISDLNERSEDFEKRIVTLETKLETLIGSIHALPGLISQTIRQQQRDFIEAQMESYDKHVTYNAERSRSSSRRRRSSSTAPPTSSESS

In the case of `CC[C@H](C)[C@@H]1NC(=O)[C@H](C)NC(=O)[C@H](C)NC(=O)[C@H](CCCCN)NC(=O)[C@@H]2CSSC[C@@H](C(=O)N[C@@H](Cc3ccc(O)cc3)C(=O)N[C@@H](Cc3ccc(O)cc3)C(=O)O)NC(=O)[C@H](CCCCN)NC(=O)[C@@H]3CSSC[C@H](NC(=O)[C@H](CCC(=O)O)NC(=O)[C@H](CO)NC(=O)[C@H](CO)NC(=O)[C@H](CO)NC(=O)[C@H](CCCCN)NC(=O)[C@@H](NC(=O)[C@H](CCCCN)NC(=O)[C@H](Cc4c[nH]cn4)NC(=O)[C@H](CC(N)=O)NC(=O)[C@@H](NC(=O)[C@H](Cc4ccccc4)NC(=O)[C@@H](N)[C@@H](C)O)[C@@H](C)CC)CSSC[C@H](NC(=O)[C@H](CCCCN)NC(=O)CNC(=O)[C@H](CO)NC(=O)[C@H](C)NC(=O)[C@H](CCCNC(=N)N)NC(=O)CNC1=O)C(=O)N[C@@H]([C@@H](C)CC)C(=O)N[C@@H](CC(N)=O)C(=O)N[C@@H](CO)C(=O)N[C@@H]([C@@H](C)O)C(=O)N3)C(=O)N[C@@H](CC(C)C)C(=O)N1CCC[C@H]1C(=O)N[C@@H](C)C(=O)N2` [Cm39], at hKCa2.2 (1 µM, CHO cells, current at +48 mV, n = 3−5 (Figure 3M)), the “reduction of current at equilibrium block” value stood at 55%. The “toxin association and dissociation kinetics” value on hKCa2.2 (CHO cells) is “fast”; on hKCa2.2 (CHO cells, listed as sCm39), “very fast”. Also, the “Hill coefficient (H)” value at hKCa2.2 (concentration-response of KCa2.2 block, CHO cells) stood at 0.7. Also, the “development and almost full recovery from equilibrium block” value at hKCa2.2 (pulses separated by 10 s) is reported as 1–3 depolarization pulses. The “reversibility of KCa2.2 block” value at hKCa2.2 (wash-out with toxin-free solution) is “fully reversible”. Also, the “inhibition (in words)” value in the data set with hKV1.5 (1 μM), with hNaV1.5 (1 μM), with hKV1.4 (1 μM) and with hKV1.6 (1 μM) was “does not inhibit; also recorded: did not show any effect” in each case. The decrease in current in the data set with hKV1.5 (1 µM, 3−5 min, n = 3−5) is given as < 3%; with hNaV1.5 (1 µM, 3−5 min, n = 3−5) it was < 3%; with hKV1.4 (1 µM, 3−5 min, n = 3−5) it was < 3%; in the data set with hKV1.6 (1 µM, 3−5 min, n = 3−5), < 3%.
